Results: patent US4173650A, “Cis-2-benzoyl-3-hydroxy-2-alkenonitriles as anti-inflammatory agents” (American Cyanamid Company, priority 1978, dated 1979)
Like-named read-outs stand apart in the source and are kept apart here.

What was measured:
[1] = tested on: Carrageenin-Induced Edema; assay: Carrageenin-induced edema in the rat; format: in vivo, rat (Royal Hart, Wistar strain); details: by gavage, 5 hours after drug (4 hours after carrageenin challenge); dose not given
Protocol: In determining the acute anti-inflammatory activity of the cis-2-benzoyl-3-hydroxy-2-alkenonitriles of the present invention, Royal Hart, Wistar strain rats, ranging in weight from 80 to 90 grams were used. The rats were fasted overnight prior to dosing but had free access to water. The test compounds were administered in aqueous suspension, by gavage, in a volume of 1.7 ml. per 50 grams of rat [corresponds to hydration volume used by Winter, et al., Proc. Soc. […] The phlogistic agent used was carrageenin prepared as a sterile 1% suspension in 0.9% aqueous sodium chloride for routine testing. A volume of 0.05 ml. was injected through a 26 gauge needle into the plantar tissue of the right hind paw. Measurements were made 5 hours after drug administration (4 hours after carrageenin challenge). Volumes of both the normal and carrageenin inflammed feet were determined. The difference between the two measurements is considered to be the increased edema due to the carrageenin administration. Results are expressed as a C/T efficacy ratio (edema of control animals/edema of treated animals).

[2] = tested on: Migration Inhibitory Factor; assay: Migration inhibitory factor in the guinea pig (capillary tube macrophage migration assay, direct MIF assay); format: cell-based, guinea pig (male Hartley); details: number of tests wherein the percent reversal of inhibition =15%
Text: Rheumatoid arthritis is a chronic inflammatory disease that is characterized by the migration of lymphocytes, macrophages and polymorphonuclear leukocytes to the sites of inflammation. The migration of lymphocytes and macrophages and their multiplication in situ is one reason for the very large increase in size of the normally thin synovial membrane, the membrane that encloses the joint space. The synovial membrane that has been transformed in this manner, slowly grows over the aricular surfaces and causes the destruction of the articular cartilage and other connective tissue structures of the joint. One of the mechanisms for the destruction of articular cartilage by the synovium is believed to be through the release of various hydrolytic enzymes by the resident macrophages which have been immobilized and activated by migration inhibitory factor (MIF). Macrophages stimulated by MIF are termed "activated macrophages" and undergo the following changes: (a) increased glucose oxidation, (b) increased ruffling of plasma membrane and increased spreading of cells, (c) synthesis and secretion of neutral proteases, (d) release of preformed lysosomal enzymes, (e) decreased migration from a capillary tube. […] Drugs that can therefore block the release of MIF by lymphocytes or the activation of macrophages by MIF should be clinically effective in retarding the destructive joint damage which occurs in rheumatoid arthritis. Drugs can be tested as MIF inhibitors by using the capillary tube migration assay as follows.
Male Hartley guinea pigs, weighing between 300 and 600 grams, are injected intraperitoneally with 25 ml Marcal 52 Oil® (Humble Oil). Three to four days later, the guinea pigs are sacrificed by decapitation, the peritoneum opened, and the exudate aspirated into a separatory funnel after the addition of 50 ml of cold Hank's solution. This is repeated two times. The oil phase is discarded and the cell supsension is spun down at 1200 r.p.m. for ten minutes. The cells are resuspended in Hank's solution and spun down at 900 r.p.m. for five minutes. This is repeated two times. Viability of the cells is then determined using trypan blue. In all experiments, viability is greater than 90%. The cell concentration is then adjusted to give a 10% packed cell volume by the addition of the appropriate amount of MEM® (Gibco 109)+15% guinea pig serum. […] To determine the area of cell migration out of the capillary tube onto the chamber surface, the chambers are projected onto a microscope screen, the area traced onto paper, and then measured using a planimeter. […]

[3] = tested on: Adjuvant Induced Arthritis; assay: Adjuvant-induced arthritis in the rat; format: in vivo, rat (Royal Hart, Wistar strain); details: for inhibition in vivo at 50 mg/kg: oral 50 mg./kg.; for inhibition in vivo at 25 mg/kg: oral 25 mg./kg.
Protocol: Groups of three Royal Hart, Wistar strain rats weighing 200±10 g. each were injected intradermally in the right hind paw with Freund's adjuvant (dried human tubercle bacilli in a mineral oil vehicle) at a dose of 2 mg./kg. of body weight. The test compounds were administered orally in a 1.5% starch vehicle at various doses once daily on days 0 to 13 post challenge. Control rats were treated in a similar manner, but given only starch vehicle. On the 14th and 21st day post challenge the diameter of the injected paw was measured by micrometer caliper. The volume of inflamed paws were estimated from these measurements and the effects of each compound are expressed as percent inhibition of swelling as compared to controls. Table II records the results of these tests conducted with representative compounds of this invention and known anti-inflammatory agents. The active compounds of this invention suppress the progression of the arthritis and associated joint deterioration.
Adjuvant-induced experimental polyarthritis is a specific systemic disease of the rat which shares interesting similarities with rheumatoid arthritis. Specifically the histology of the two diseases bears a remarkable resemblence as shown by C. M. Pearson et al., Am. J. Path. 42, 73 (1963). E. M. Glenn, Am. J. Vet. Res. 27, (116), 339 (1966) has classified adjuvant-induced polyarthritis as a crippling and permanent deformity resulting from diffuse connective tissue involvement areound certain susceptible joints in the rat. Zahiri et al, Can. Med. Ass. J., 101, 269 (1969) have shown that the fusiform swelling of the distal joints is associated with edema, congestion and synovitis including pannus formation, all of which precede the ultimate destruction of bone and cartilage. Furthermore, Zahiri et al., indicate that the cartilage destruction in the joint is due to an invasive pannus which originates in the marginal synovium and extends across the articular surface to erode it. […] The most pointed reference showing the relationship between arthritis and joint deterioration is an X-Ray analysis of adjuvant arthritis in the rat by Blackham et al., Agents and Actions 7, 145 (1977). In a similar manner, inhibition of the progress of arthritis in paws of rats treated with the compounds of this invention also lessens associated joint deterioration.

[4] = tested on: arthritic paw swelling; details: cited from earlier work
[5] = 336 h, once daily days 0 to 13, read-out: % Inhibition of Swelling, Day 14
[6] = 504 h, once daily days 0 to 13, read-out: % Inhibition of Swelling, Day 21

For `COc1ccc(C(=O)/C(C#N)=C(/C)O)cc1` [Cis-3-hydroxy-2-(p-methoxybenzoyl)crotononitrile], the “C/T Ratio (edema of control animals/edema of treated animals)” value [1] was 1.59.
With `COc1ccccc1C(=O)/C(C#N)=C(/C)O` [Cis-3-hydroxy-2-(o-anisoyl)crotononitrile] the “C/T Ratio (edema of control animals/edema of treated animals)” value [1] was 1.30 and the “#Actives/Total Tests” value ([2]; 5×10^-5 M) was 4/5.
For `C/C(O)=C(\C#N)C(=O)c1ccccc1Cl` [Cis-2-(o-chlorobenzoyl)-3-hydroxycrotononitrile], the inhibition in vivo at 50 mg/kg [3, 5] was 39% and the inhibition in vivo at 50 mg/kg [3, 6] was 29%.
With `C/C(O)=C(\C#N)C(=O)c1cccc(Cl)c1C` [Cis-2-(3-chloro-o-toluoyl)-3-hydroxycrotononitrile] the “#Actives/Total Tests” value ([2]; 5×10^-5 M) was 3/5, the inhibition in vivo at 50 mg/kg [3, 5] was 61% and the inhibition in vivo at 50 mg/kg [3, 6] was 17%.
With `C/C(O)=C(\C#N)C(=O)c1ccc(C)cc1` [Cis-3-hydroxy-2-p-toluoylcrotononitrile, Cis-3-hydroxy-2-(p-toluoyl)crotonitrile] the “C/T Ratio (edema of control animals/edema of treated animals)” value [1] was 1.41.
Compound `C/C(O)=C(\C#N)C(=O)c1ccc(Cl)cc1` [Cis-2-(p-chlorobenzoyl)-3-hydroxycrotonitrile] has an inhibition in vivo at 25 mg/kg [3, 5] of 58% and an inhibition in vivo at 25 mg/kg [3, 6] of 15%.
With `C/C(O)=C(\C#N)C(=O)c1ccc(C(F)(F)F)cc1` [Cis-3-hydroxy-2-(α,α,α-trifluoro-p-toluoyl)crontononitril] the “C/T Ratio (edema of control animals/edema of treated animals)” value [1] was 1.97, the inhibition in vivo at 25 mg/kg [3, 5] was 68% and the inhibition in vivo at 25 mg/kg [3, 6] was 5%.
For `C/C(O)=C(\C#N)C(=O)c1cccc(F)c1` [Cis-2-(m-fluorobenzoyl)-3-hydroxycrotononitrile], the “C/T Ratio (edema of control animals/edema of treated animals)” value [1] was 1.61, the inhibition in vivo at 50 mg/kg [3, 5] was 48% and the inhibition in vivo at 50 mg/kg [3, 6] was 37%.
With `CC(=O)Oc1ccccc1C(=O)O` [Aspirin, reference compound] the “C/T Ratio (edema of control animals/edema of treated animals)” value [1] was 2.86.
In the case of `C/C(O)=C(\C#N)C(=O)c1ccc(F)cc1` [Cis-2-(p-fluorobenzoyl)-3-hydroxycrotononitrile], the “#Actives/Total Tests” value ([2]; 5×10^-5 M) is reported as 4/4, the inhibition in vivo at 25 mg/kg [3, 5] is reported as 65% and the inhibition in vivo at 25 mg/kg [3, 6] is reported as 30%.
With `C/C(O)=C(\C#N)C(=O)c1ccc(Br)cc1` [Cis-2-(p-bromobenzoyl)-3-hydroxycrotononitrile] the “#Actives/Total Tests” value ([2]; 10 μg./ml.) was 2/3.
For `COc1ccc2c(c1)c(CC(=O)O)c(C)n2C(=O)c1ccc(Cl)cc1` [Indomethacin], the “effect on joint and bone deterioration” value ([4]; S. Wong et al. 1973, G. R. Bobalick et al. 1974) is listed as “prevent joint and bone deterioration” and the “effect on arthritic paw swelling” value ([4]; literature) is listed as “inhibit arthritic paw swelling”.
With `C/C(O)=C(\C#N)C(=O)c1ccccc1F` [Cis-2-(o-fluorobenzoyl)-3-hydroxycrotononitrile] the “C/T Ratio (edema of control animals/edema of treated animals)” value [1] was 2.18.
